# Assay results reported in US20070026073A1, “Amorphous efavirenz and the production thereof” (priority 2005, published 2007).
# Experiment: dissolution test, USP apparatus II (paddles), efavirenz released in water
# Assay type: physicochemical
# Details: 50 mg efavirenz equivalent in capsule with 15% croscarmellose sodium, 37° C., 100 rpm
# Method: FIG. 9 is a plot of percent efavirenz released in water as a function of time for spray dried product using solvent and solvent/non-solvent methods in accordance with Example #8.
# Initial release refers to the percent of drug released after 15 minutes in accordance with a standard dissolution test method. Extent of release refers to the percent of drug released after 240 minutes in accordance with the same standard dissolution test method.
# Preferably these limits are obtained within about 120 minutes, more particularly within about 60 minutes and still more particularly within about 30 minutes. Dissolution profiles can be determined using USP apparatus II (paddles) (VK 7010®, Varian Inc.), with a bath temperature of 37° C. and a paddle speed of 100 rpm for 240 minutes.
# 3. The dissolution properties of both amorphous compositions were tested and compared to the crystalline drug form. An amount equivalent to 50 mg efavirenz was analyzed. Powders were hand-filled into size 1 hard gelatin capsules (Shinogi Qualicaps) with an additional 15% croscarmellose sodium (Ac-Di-Sol®, FMC BioPolymers). USP apparatus II (paddles) (VK 7010®, Varian Inc.) was used, with a bath temperature of 37° C. and a paddle speed of 100 rpm for 240 minutes. Both amorphous efavirenz compositions achieved faster rate of release and higher maximum aqueous concentration than the crystalline form (FIG. 9, Table 1). […]
compound,measurement,setting,value
"O=C1Nc2ccc(Cl)cc2[C@@](C#CC2CC2)(C(F)(F)F)O1 [crystalline efavirenz, (S)-6-chloro-4-(cyclopropylethynyl)-1,4-dihydro-4-(trifluoromethyl)-2H-3,1-benzoxazin-2-one]",EFV released 15 min,15 min,7%
same,EFV released 240 min,240 min,13%
